Test results: patent publication US10259810B2, “N-sulfonylated pyrazolo[3,4-b]pyridin-6-carboxamides and method of use” (AbbVie S.à.r.l., priority 2015, dated 2019)
pEC50: −log10 of the molar value.

Experiments:
ΔF508-CFTR [1] = molecular target: T1, ΔF508-CFTR (Homo sapiens, UniProt P13569, DEL508-508); assay: CFTR cell surface levels using HRP-tagged ΔF508-CFTR expressing CFBE cells, intrinsic corrector capacity; assay type: cell-based; parameters: % Activation: concentration or dose not given beside the values
T1 construct: host or cells: CFBE41o-, doxycycline-inducible
Method in brief: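 Read-out: chemiluminescent HRP activity of ECL4-HRP-tagged ΔF508-CFTR at the cell surface, 15 min substrate in dark. Normalized as 100×(sample−DMSO)/(positive control−DMSO).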

ΔF508-CFTR [2] = molecular target: T1, ΔF508-CFTR; assay: CFTR cell surface levels using HRP-tagged ΔF508-CFTR expressing CFBE cells, in the presence of a co-corrector; assay type: cell-based
Method in brief: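 Chemiluminescent read-out of surface HRP (15 min, dark) after PBS washes. Activity is normalized as 100×(sample−DMSO)/(3 μM co-corrector alone−DMSO).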

[3] = HRP-tagged ΔF508-CFTR expressing CFBE41o- cells, compound alone (intrinsic corrector capacity), 20 hours at 33° C.
[4] = HRP-tagged ΔF508-CFTR CFBE cells, in the presence of 3 μM co-corrector
[5] = HRP-tagged ΔF508-CFTR expressing CFBE41o- cells, compound alone (intrinsic corrector capacity), 20 hours at 33° C., read-out: EC50
[6] = HRP-tagged ΔF508-CFTR CFBE cells, in the presence of 3 μM co-corrector, read-out: EC50

T1 sequence (P13569 with tags, fused parts or gaps DEL508-508): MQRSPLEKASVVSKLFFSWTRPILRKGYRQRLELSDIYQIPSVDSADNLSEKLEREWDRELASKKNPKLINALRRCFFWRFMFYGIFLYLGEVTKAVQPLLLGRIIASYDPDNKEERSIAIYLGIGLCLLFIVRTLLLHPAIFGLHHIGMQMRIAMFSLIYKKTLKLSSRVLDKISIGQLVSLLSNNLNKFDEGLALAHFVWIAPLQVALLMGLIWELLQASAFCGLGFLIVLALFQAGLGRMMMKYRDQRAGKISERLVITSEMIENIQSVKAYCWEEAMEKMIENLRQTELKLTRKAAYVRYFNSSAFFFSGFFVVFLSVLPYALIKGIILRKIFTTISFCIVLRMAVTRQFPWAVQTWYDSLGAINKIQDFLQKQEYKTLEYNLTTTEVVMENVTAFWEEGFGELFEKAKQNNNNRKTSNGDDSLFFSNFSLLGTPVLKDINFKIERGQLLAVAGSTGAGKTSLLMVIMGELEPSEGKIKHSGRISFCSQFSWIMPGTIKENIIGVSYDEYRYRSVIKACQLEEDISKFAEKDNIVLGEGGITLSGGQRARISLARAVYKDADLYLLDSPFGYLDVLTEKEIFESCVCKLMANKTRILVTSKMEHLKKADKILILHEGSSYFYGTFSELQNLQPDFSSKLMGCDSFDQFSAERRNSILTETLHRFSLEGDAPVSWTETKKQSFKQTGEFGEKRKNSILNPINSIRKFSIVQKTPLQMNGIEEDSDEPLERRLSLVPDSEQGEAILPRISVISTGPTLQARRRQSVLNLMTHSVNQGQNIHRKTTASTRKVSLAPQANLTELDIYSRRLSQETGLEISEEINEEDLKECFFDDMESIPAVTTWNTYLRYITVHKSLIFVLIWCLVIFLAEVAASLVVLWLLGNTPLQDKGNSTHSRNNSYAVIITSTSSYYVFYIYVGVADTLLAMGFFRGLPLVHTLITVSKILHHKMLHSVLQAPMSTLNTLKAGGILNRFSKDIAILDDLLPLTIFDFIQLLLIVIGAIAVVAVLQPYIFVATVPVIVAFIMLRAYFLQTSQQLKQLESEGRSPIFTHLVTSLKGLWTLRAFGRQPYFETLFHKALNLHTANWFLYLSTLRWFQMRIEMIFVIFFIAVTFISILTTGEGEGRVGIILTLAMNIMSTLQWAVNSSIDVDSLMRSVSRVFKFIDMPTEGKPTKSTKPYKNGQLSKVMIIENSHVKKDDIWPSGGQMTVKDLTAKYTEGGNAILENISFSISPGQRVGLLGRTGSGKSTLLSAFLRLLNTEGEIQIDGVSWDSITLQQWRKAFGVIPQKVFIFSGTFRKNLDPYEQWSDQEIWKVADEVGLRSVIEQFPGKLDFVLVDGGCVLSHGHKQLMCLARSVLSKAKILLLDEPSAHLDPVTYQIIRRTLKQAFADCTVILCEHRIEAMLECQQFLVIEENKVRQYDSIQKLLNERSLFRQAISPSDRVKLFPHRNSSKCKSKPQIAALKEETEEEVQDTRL

Row | SMILES | % Activation (ΔF508-CFTR [1]; [3]) [%] | % Activation (ΔF508-CFTR [2]; [4]) [%] | pEC50 (ΔF508-CFTR [1]; [5]) | pEC50 (ΔF508-CFTR [2]; [6]) | pEC50 (ΔF508-CFTR [1]) | pEC50 (ΔF508-CFTR [2])
1 | CCS(=O)(=O)NC(=O)c1cc(N2CCC(N3CCOCC3)CC2)c2c(C3CCC3)nn(-c3ccccc3)c2n1 [Compound 437, 3-cyclobutyl-N-(ethanesulfonyl)-4-[4-(morpholin-4-yl)piperidin-1-yl]-1-phenyl-1H-pyrazolo[3,4-b]pyridine-6-carboxamide] | 353.8 | 563.64 |  |  |  | 
2 | CCS(=O)(=O)NC(=O)c1cc(-c2ccc(N3CCOCC3)cc2)c2c(C)nn(-c3ccc(OC(F)(F)F)cc3)c2n1 [Compound 70, N-(ethanesulfonyl)-3-methyl-4-[4-(morpholin-4-yl)phenyl]-1-[4-(trifluoromethoxy)phenyl]-1H-pyrazolo[3,4-b]pyridine-6-carboxamide] | 167.8 | 342.85 | 6.21 | 6.39 |  | 
3 | CC(=O)Nc1ccc(-c2cc(C(=O)NS(C)(=O)=O)nc3c2c(C(C)C)nn3C2CCCCC2)cc1 [Compound 79, 4-(4-acetamidophenyl)-1-cyclohexyl-N-(methanesulfonyl)-3-(propan-2-yl)-1H-pyrazolo[3,4-b]pyridine-6-carboxamide] | 280.9 | 501.6 | 5.91 | 6.26 |  | 
4 | Cc1nn(-c2cccc(F)c2)c2nc(C(=O)NS(C)(=O)=O)cc(-c3ccc(N4CCOCC4)cc3)c12 [Compound 67, 1-(3-fluorophenyl)-N-(methanesulfonyl)-3-methyl-4-[4-(morpholin-4-yl)phenyl]-1H-pyrazolo[3,4-b]pyridine-6-carboxamide] | 181.96 | 371.62 | 6.44 | 6.62 |  | 
5 | COCC1CCN(c2cc(C(=O)NS(=O)(=O)CCCN(C)C)nc3c2c(C(C)C)nn3-c2ccc(F)cc2)CC1 [Compound 290, N-[3-(dimethylamino)propane-1-sulfonyl]-1-(4-fluorophenyl)-4-[4-(methoxymethyl)piperidin-1-yl]-3-(propan-2-yl)-1H-pyrazolo[3,4-b]pyridine-6-carboxamide] | 200.4 | 382.2 | 6.21 | 6.27 |  | 
6 | CS(=O)(=O)NC(=O)c1cc(C2CCN(C3CCC(F)(F)CC3)CC2)c2c(C3CCC3)nn(-c3ccc(F)cc3)c2n1 [Compound 593, 3-cyclobutyl-4-[1-(4,4-difluorocyclohexyl)piperidin-4-yl]-1-(4-fluorophenyl)-N-(methanesulfonyl)-1H-pyrazolo[3,4-b]pyridine-6-carboxamide] | 157.8 | 366.7 | 6.72 | 6.71 |  | 
7 | CCCN(CC)S(=O)(=O)NC(=O)c1cc(OCC2CCOCC2)c2c(C3CCC3)nn(-c3ccccc3)c2n1 [Compound 355, 3-cyclobutyl-N-[ethyl(propyl)sulfamoyl]-4-[(oxan-4-yl)methoxy]-1-phenyl-1H-pyrazolo[3,4-b]pyridine-6-carboxamide] | 102.4 | 278.4 | 6.79 | 6.42 |  | 
8 | CS(=O)(=O)NC(=O)c1cc(-c2ccc(N3CCC(C#N)CC3)nc2)c2c(C3CC(F)(F)C3)nn(-c3ccccc3)c2n1 [Compound 195, 4-[6-(4-cyanopiperidin-1-yl)pyridin-3-yl]-3-(3,3-difluorocyclobutyl)-N-(methanesulfonyl)-1-phenyl-1H-pyrazolo[3,4-b]pyridine-6-carboxamide] | 225.2 | 387.47 | 6.43 | 6.72 |  | 
9 | CCS(=O)(=O)NC(=O)c1cc(-c2ccc(N3CCOCC3)nc2)c2c(C)nn(-c3ccc(F)cc3F)c2n1 [Compound 61, 1-(2,4-difluorophenyl)-N-(ethanesulfonyl)-3-methyl-4-[6-(morpholin-4-yl)pyridin-3-yl]-1H-pyrazolo[3,4-b]pyridine-6-carboxamide] | 184.35 | 415.3 | 6.00 | 6.30 |  | 
10 | COC1CC(CN2CCC(c3cc(C(=O)NS(C)(=O)=O)nc4c3c(C3CCC3)nn4-c3ccc(F)cc3)CC2)C(OC)O1 (stereo not shown) [Compound 602, 3-cyclobutyl-4-{1-[(2,5-dimethoxyoxolan-3-yl)methyl]piperidin-4-yl}-1-(4-fluorophenyl)-N-(methanesulfonyl)-1H-pyrazolo[3,4-b]pyridine-6-carboxamide] | 133.6 | 359.1 | 5.93 | 6.24 |  | 
11 | CS(=O)(=O)NC(=O)c1cc(N2CCC(N3CCCC(C#N)C3)CC2)c2c(C3CCC3)nn(-c3ccc(F)cc3)c2n1 (stereo not shown) [Compound 566, 4-(3-cyano[1,4'-bipiperidin]-1'-yl)-3-cyclobutyl-1-(4-fluorophenyl)-N-(methanesulfonyl)-1H-pyrazolo[3,4-b]pyridine-6-carboxamide] | 365.1 | 708.8 | 6.95 | 6.40 |  | 
12 | CS(=O)(=O)NC(=O)c1cc(-c2ccc(N3CCC(C#N)CC3)nc2)c2c(C3CCC3)nn(-c3ccnc(N4CCCC4)c3)c2n1 [Compound 189, 4-[6-(4-cyanopiperidin-1-yl)pyridin-3-yl]-3-cyclobutyl-N-(methanesulfonyl)-1-[2-(pyrrolidin-1-yl)pyridin-4-yl]-1H-pyrazolo[3,4-b]pyridine-6-carboxamide] | 236.2 | 409.6 | 6.38 | 6.63 |  | 
13 | Cc1cccc(-n2nc(C3CCC3)c3c(N4CCC(N5CCOCC5)CC4)cc(C(=O)NS(C)(=O)=O)nc32)c1 [Compound 509, 3-cyclobutyl-N-(methanesulfonyl)-1-(3-methylphenyl)-4-[4-(morpholin-4-yl)piperidin-1-yl]-1H-pyrazolo[3,4-b]pyridine-6-carboxamide] | 333.2 | 527.9 | 6.49 | 6.93 |  | 
14 | Cc1cccc(-n2nc(C(C)C)c3c(N4CCC5(C4)CC5(F)F)cc(C(=O)NS(C)(=O)=O)nc32)c1 (stereo not shown) [Compound 149, 4-(1,1-difluoro-5-azaspiro[2.4]heptan-5-yl)-N-(methanesulfonyl)-1-(3-methylphenyl)-3-(propan-2-yl)-1H-pyrazolo[3,4-b]pyridine-6-carboxamide] | 122.3 | 299.95 | 6.41 | 6.59 |  | 
15 | CC(C)c1nn(C2CCCC2)c2nc(C(=O)NS(C)(=O)=O)cc(-c3ccc(N(C)C)nc3)c12 [Compound 55, 1-cyclopentyl-4-[6-(dimethylamino)pyridin-3-yl]-N-(methanesulfonyl)-3-(propan-2-yl)-1H-pyrazolo[3,4-b]pyridine-6-carboxamide] | 126.75 | 341.65 | 5.91 | 5.98 |  | 
16 | CS(=O)(=O)NC(=O)c1cc(OCC2CCCCC2)c2c(C3CCC3)nn(-c3ccccc3)c2n1 [Compound 181, 3-cyclobutyl-4-(cyclohexylmethoxy)-N-(methanesulfonyl)-1-phenyl-1H-pyrazolo[3,4-b]pyridine-6-carboxamide] | 137.73 | 357.93 | 6.40 | 6.36 |  | 
17 | O=C(NS(=O)(=O)CCCN1CCOCC1)c1cc(OCC2CCOCC2)c2c(C3CCC3)nn(-c3ccccc3)c2n1 [Compound 347, 3-cyclobutyl-N-[3-(morpholin-4-yl)propane-1-sulfonyl]-4-[(oxan-4-yl)methoxy]-1-phenyl-1H-pyrazolo[3,4-b]pyridine-6-carboxamide] | 131.4 | 301.15 |  |  | 6.58 | 7.27
18 | CC1(S(=O)(=O)NC(=O)c2cc(N3CCC(N4CCOCC4)CC3)c3c(C4CCC4)nn(-c4ccc(F)cc4)c3n2)CC1 [Compound 508, 3-cyclobutyl-1-(4-fluorophenyl)-N-(1-methylcyclopropane-1-sulfonyl)-4-[4-(morpholin-4-yl)piperidin-1-yl]-1H-pyrazolo[3,4-b]pyridine-6-carboxamide] | 217.5 | 448.8 | 6.74 | 7.04 |  | 
19 | COCCS(=O)(=O)NC(=O)c1cc(-c2ccc(N3CCOCC3)cc2)c2c(C(C)C)nn(C3CCOC3)c2n1 (stereo not shown) [Compound 232, N-(2-methoxyethanesulfonyl)-4-[4-(morpholin-4-yl)phenyl]-1-(oxolan-3-yl)-3-(propan-2-yl)-1H-pyrazolo[3,4-b]pyridine-6-carboxamide] | 71.64 | 199.75 | 5.78 | 5.76 |  | 
20 | COC[C@H]1CCCN1C1CCN(S(=O)(=O)NC(=O)c2cc(N3CCC(CN4CCCC4)CC3)c3c(C4CCC4)nn(-c4ccccc4)c3n2)CC1 [Compound 458, 3-cyclobutyl-N-{4-[(2R)-2-(methoxymethyl)pyrrolidin-1-yl]piperidine-1-sulfonyl}-1-phenyl-4-{4-[(pyrrolidin-1-yl)methyl]piperidin-1-yl}-1H-pyrazolo[3,4-b]pyridine-6-carboxamide] | 124.4 | 282.8 | 6.10 | 6.04 |  | 
21 | CC(C)c1nn(-c2ccc(F)c(F)c2)c2nc(C(=O)NS(C)(=O)=O)cc(-c3ccc(N4CCOCC4)cc3)c12 [Compound 127, 1-(3,4-difluorophenyl)-N-(methanesulfonyl)-4-[4-(morpholin-4-yl)phenyl]-3-(propan-2-yl)-1H-pyrazolo[3,4-b]pyridine-6-carboxamide] | 301.45 | 449.1 | 6.29 | 6.60 |  | 
